# Measurements from patent US7022667B2, “O-derivatized nocathiacin derivatives” (Bristol-Myers Squibb Company, priority 2002, dated 2006).
# Assays:
# Assay in all cases: MIC, broth micro dilution assay (NCCLS)
# Type in all cases: cell-based
# [1] = system: Enterococcus faecalis A20688; conditions: Mueller-Hinton medium, 35° C., 18 hours
# Outline: (§1)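 Broth microdilution in Mueller-Hinton medium, with a final inoculum of about 5×10^5 cfu/well. Plates incubated at 35 °C for 18 hours in ambient air. MIC = lowest drug concentration preventing visible growth.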
# [2] = system: Staphylococcus aureus A15090; conditions: Mueller-Hinton medium, 35° C., 18 hours
# Outline: as §1
# [3] = system: Streptococcus pneumoniae A28272; conditions: 50% Mueller-Hinton medium and 50% Todd Hewitt medium, 35° C., 18 hours
SMILES,MIC (μg/mL) Enterococcus faecalis A20688 [1] [µg/mL],MIC (μg/mL) Staphylococcus aureus A15090 [2] [µg/mL],MIC (μg/mL) Streptococcus pneumoniae A28272 [3] [µg/mL]
C=C(NC(=O)c1csc(-c2nc3c(cc2O)-c2nc(cs2)C(=O)NC(C(C)O)C(=O)NC(=C(C)OC)c2nc(cs2)C(=O)NC2c4nc(cs4)C(=O)NC(COC(=O)c4c5c6c(cccc6n4OC(=O)N(C)CCO)COC(=O)C(OC4CC(C)(O)C(N(C)C)C(C)O4)C2OC5)c2nc-3cs2)n1)C(N)=O (stereo not drawn) [Example 61],0.03,0.03,0.0005
C=C(NC(=O)c1csc(-c2nc3c(cc2O)-c2nc(cs2)C(=O)NC(C(C)O)C(=O)NC(=C(C)OC)c2nc(cs2)C(=O)NC2c4nc(cs4)C(=O)NC(COC(=O)c4c5c6c(cccc6n4OC(=O)NCCOCCOCCOCCOC)COC(=O)C(OC4CC(C)(O)C(N(C)C)C(C)O4)C2OC5)c2nc-3cs2)n1)C(N)=O (stereo not drawn) [Example 62],0.125,0.125,0.015
C=C(NC(=O)c1csc(-c2nc3c(cc2O)-c2nc(cs2)C(=O)NC(C(C)O)C(=O)NC(=C(C)OC)c2nc(cs2)C(=O)NC2c4nc(cs4)C(=O)NC(COC(=O)c4c5c6c(cccc6n4OS(=O)(=O)[O-])COC(=O)C(OC4CC(C)(O)C(N(C)C)C(C)O4)C2OC5)c2nc-3cs2)n1)C(N)=O.[Na+] (stereo not drawn) [Example 64],0.125,1.0,0.06
C=C(NC(=O)c1csc(-c2nc3c(cc2O)-c2nc(cs2)C(=O)NC(C(C)O)C(=O)NC(=C(C)OC)c2nc(cs2)C(=O)NC2c4nc(cs4)C(=O)NC(COC(=O)c4c5c6c(cccc6n4OP(=O)(O)OCCCl)COC(=O)C(OC4CC(C)(O)C(N(C)C)C(C)O4)C2OC5)c2nc-3cs2)n1)C(N)=O (stereo not drawn) [Example 65],0.5,0.25,0.03
C=C(NC(=O)c1csc(-c2nc3c(cc2OCc2ccccc2)-c2nc(cs2)C(=O)NC(C(C)O)C(=O)NC(=C(C)OC)c2nc(cs2)C(=O)NC2c4nc(cs4)C(=O)NC(COC(=O)c4c5c6c(cccc6n4OCc4ccccc4)COC(=O)C(OC4CC(C)(O)C(N(C)C)C(C)O4)C2OC5)c2nc-3cs2)n1)C(N)=O (stereo not drawn) [Example 66],0.25,2.0,0.001
C=C(NC(=O)c1csc(-c2nc3c(cc2OCCCS(=O)(=O)[O-])-c2nc(cs2)C(=O)NC(C(C)O)C(=O)NC(=C(C)OC)c2nc(cs2)C(=O)NC2c4nc(cs4)C(=O)NC(COC(=O)c4c5c6c(cccc6n4OCCCS(=O)(=O)[O-])COC(=O)C(OC4CC(C)(O)C(N(C)C)C(C)O4)C2OC5)c2nc-3cs2)n1)C(N)=O.[Na+].[Na+] (stereo not drawn) [Example 67],128,>128,0.5
C=C(NC(=O)c1csc(-c2nc3c(cc2OCC(=O)OC(C)(C)C)-c2nc(cs2)C(=O)NC(C(C)O)C(=O)NC(=C(C)OC)c2nc(cs2)C(=O)NC2c4nc(cs4)C(=O)NC(COC(=O)c4c5c6c(cccc6n4OCC(=O)OC(C)(C)C)COC(=O)C(OC4CC(C)(O)C(N(C)C)C(C)O4)C2OC5)c2nc-3cs2)n1)C(N)=O (stereo not drawn) [Example 68],4.0,8.0,0.007
C=C(NC(=O)c1csc(-c2nc3c(cc2OCC(=O)NCCNC(=O)OC(C)(C)C)-c2nc(cs2)C(=O)NC(C(C)O)C(=O)NC(=C(C)OC)c2nc(cs2)C(=O)NC2c4nc(cs4)C(=O)NC(COC(=O)c4c5c6c(cccc6n4OCC(=O)NCCNC(=O)OC(C)(C)C)COC(=O)C(OC4CC(C)(O)C(N(C)C)C(C)O4)C2OC5)c2nc-3cs2)n1)C(N)=O (stereo not drawn) [Example 69],64,16,0.25
C=C(NC(=O)c1csc(-c2nc3c(cc2OCC(=O)NCC#N)-c2nc(cs2)C(=O)NC(C(C)O)C(=O)NC(=C(C)OC)c2nc(cs2)C(=O)NC2c4nc(cs4)C(=O)NC(COC(=O)c4c5c6c(cccc6n4OCC(=O)NCC#N)COC(=O)C(OC4CC(C)(O)C(N(C)C)C(C)O4)C2OC5)c2nc-3cs2)n1)C(N)=O (stereo not drawn) [Example 70],0.5,4.0,0.06
C=C(NC(=O)c1csc(-c2nc3c(cc2OCC(=O)N(C)C)-c2nc(cs2)C(=O)NC(C(C)O)C(=O)NC(=C(C)OC)c2nc(cs2)C(=O)NC2c4nc(cs4)C(=O)NC(COC(=O)c4c5c6c(cccc6n4OCC(=O)N(C)C)COC(=O)C(OC4CC(C)(O)C(N(C)C)C(C)O4)C2OC5)c2nc-3cs2)n1)C(N)=O (stereo not drawn) [Example 71],4.0,8.0,0.125
C=C(NC(=O)c1csc(-c2nc3c(cc2OCC(=O)OCCO)-c2nc(cs2)C(=O)NC(C(C)O)C(=O)NC(=C(C)OC)c2nc(cs2)C(=O)NC2c4nc(cs4)C(=O)NC(COC(=O)c4c5c6c(cccc6n4OCC(=O)OCCO)COC(=O)C(OC4CC(C)(O)C(N(C)C)C(C)O4)C2OC5)c2nc-3cs2)n1)C(N)=O (stereo not drawn) [Example 72],4.0,4.0,0.06
C=C(NC(=O)c1csc(-c2nc3c(cc2OCOP(=O)(OC(C)(C)C)OC(C)(C)C)-c2nc(cs2)C(=O)NC(C(C)O)C(=O)NC(=C(C)OC)c2nc(cs2)C(=O)NC2c4nc(cs4)C(=O)NC(COC(=O)c4c5c6c(cccc6n4OCOP(=O)(OC(C)(C)C)OC(C)(C)C)COC(=O)C(OC4CC(C)(O)C(N(C)C)C(C)O4)C2OC5)c2nc-3cs2)n1)C(N)=O (stereo not drawn) [Example 73],2.0,2.0,0.25
C=CCOc1cc2c(nc1-c1nc(C(=O)NC(=C)C(N)=O)cs1)-c1csc(n1)C1COC(=O)c3c4c5c(cccc5n3OCC=C)COC(=O)C(OC3CC(C)(O)C(N(C)C)C(C)O3)C(OC4)C(NC(=O)c3csc(n3)C(=C(C)OC)NC(=O)C(C(C)O)NC(=O)c3csc-2n3)c2nc(cs2)C(=O)N1 (stereo not drawn) [Example 74],0.25,0.06,0.0005
C#CCOc1cc2c(nc1-c1nc(C(=O)NC(=C)C(N)=O)cs1)-c1csc(n1)C1COC(=O)c3c4c5c(cccc5n3OCC#C)COC(=O)C(OC3CC(C)(O)C(N(C)C)C(C)O3)C(OC4)C(NC(=O)c3csc(n3)C(=C(C)OC)NC(=O)C(C(C)O)NC(=O)c3csc-2n3)c2nc(cs2)C(=O)N1 (stereo not drawn) [Example 75],0.06,0.03,0.0005
C=C(NC(=O)c1csc(-c2nc3c(cc2OCCO)-c2nc(cs2)C(=O)NC(C(C)O)C(=O)NC(=C(C)OC)c2nc(cs2)C(=O)NC2c4nc(cs4)C(=O)NC(COC(=O)c4c5c6c(cccc6n4OCCO)COC(=O)C(OC4CC(C)(O)C(N(C)C)C(C)O4)C2OC5)c2nc-3cs2)n1)C(N)=O (stereo not drawn) [Example 77],1.0,0.5,0.03
